{"source": "patent US9221900B2", "about": "“Methods for identifying safe and functional humanized antibodies” (AC IMMUNE S.A., priority 2010, dated 2015)", "key": {"[1]": {"system": "mixed cortical cells from P1 rats", "test": "Aβ1-42 oligomer cytotoxicity assay, MTT readout", "type": "cell-based, rat", "conditions": "for reversal of Aβ1-42 oligomer-mediated toxicity: mixed primary cortical cultures, different IgG backbones", "method": "FIG. 2 provides graphs and immunocytochemical images corresponding to the experiments described in Example 6.3. […] An MTT assay was used to determine cell viability as described in the Methods section. The means (±SEM) of five independent experiments are shown. *P<0.05, **P<0.01. […] Neurotoxicity following extended Aβ1-42 oligomer treatment was tested by morphological analyses (C).\nA non-specific IgG monoclonal antibody was used as a control in all experiments.\nRat primary cortical cultures were prepared from Sprague-Dawley rats (Charles River Laboratories L'Arbresle, France) at post-natal day 1, as described by Meberg and Miller (Meberg and Miller, 2003). Cerebellum and meninges were removed, and cortices were cut into small pieces and dissociated with enzymatic disruption at 37° C. in dissociation buffer (papaine, CaCl2, EDTA, and HEPES; all from Invitrogen, Carlsbad, Calif.). DNase (Invitrogen) was added for 10 min. Following dissociation, dispersed cortical neurons were plated onto poly-L-lysine (0.01%; mol. wt 150,000-300,000; Sigma) coated 6-well, 24-well, or 96-well tissue culture plates. For immunocytochemistry, cells were grown on coated glass coverslips, into 24-well plates. Cells were maintained in Neurobasal media (Invitrogen) without phenol-red, with the addition of L-glutamine (2 mM; Sigma), B27 supplement (Invitrogen), and penicillin/streptomycin (Sigma) in a humidified incubator at 37° C. and 5% CO2. Following 1 h and 30 min in culture, the media was replaced with astrocyte-conditioned medium. After a further 4 days in culture, cell proliferation was blocked by treatment with cytosine arabinoside (Ara-C) at 2.5 μM (Invitrogen). Under these culture conditions, 20% of cells were identified as neurons by NeuN/DAPI staining (not shown). Experiments using mixed cortical cultures were generally performed at days-in-vitro (“DIV”) 6 unless stated otherwise. Enriched microglia prepared from cortex and hippocampus were harvested as described for cortical cultures above. Cortex and hippocampus were put in DMEM containing high glucose and homogenized by pipetting with a 10 mL pipette and then with a syringe. The homogenate was centrifuged for 3 min at 1,000×g, and then resuspended in pre-warmed DMEM containing high glucose containing 10% FCS and penicillin/streptomycin (microglia media). The cell suspension was next transferred to a T75 tissue-culture flask and kept in a humidified incubator at 37° C. and 5% CO2 for 1 week. The flask was shaken to separate microglia from adherent cells, and collected and washed in DMEM. The resulting cells were resuspended in 1 mL microglia media, counted, and plated at 5×10^4 cells/well. To verify microglial enrichment, cells were stained with the astroglial and microglial markers GFAP and Iba1, respectively. Greater than 60% of cells stained positive for Iba1, with no cells staining for both GFAP and Iba1. Pure microglia were prepared from post-natal day 3 CX3CR1-GFP mice (Jackson Laboratories). Cortex and hippocampus were dissected and triturated in DMEM containing high glucose using a 10 mL pipette, and then with an 18 gauge needle. The homogenate was centrifuged for 3 min at 1,000 g, and then resuspended in pre-warmed DMEM containing high glucose, 10% FBS and penicillin/streptomycin (microglia media). The cell suspension was next transferred to a T75 tissue-culture flask and kept in a humidified incubator at 37° C. and 5% CO2 for 7-10 d. Microglia were isolated by shaking, collected and washed in DMEM. The resulting cells were resuspended in 1 mL microglia media, counted, and plated on tissue culture treated glass chamber slides at 5×10^4 cells/well for use in experiments.\nThe cytotoxicity of Aβ1-42 oligomers was tested on mixed cortical cultures at DIV 5. All antibodies, at a final concentration of 100 μg/mL, were co-incubated with Aβ1-42 oligomers for 30 min in serum-free cell culture medium at 37° C. before treatment of cells. […]"}, "Aβ1-42 [2]": {"system": "Aβ1-42", "test": "Aβ ELISA, binding to Aβ peptides and Aβ1-42 assembly states", "parameters": "species or system human", "conditions": "Aβ ELISA; human and murine Aβ1-42 and human Aβ1-40", "excerpt": "(§1) FIG. 1 provides graphs and immunohistochemical images corresponding to the experiments described in Example 6.1 and 6.2. […] As a control, an anti-Aβ IgG monoclonal antibody with a N-terminal epitope was used. […] The mean (±SEM) of two assays is shown.\nMurine anti-Aβ monoclonal antibodies were generated by immunizing mice with an Aβ peptide antigen using a liposomal vaccine formulation as previously described (Muhs et al., 2007). Several criteria were used to select candidate antibodies, including the ability to bind multiple Aβ species and to inhibit Aβ1-42 assembly into small cytotoxic peptide aggregates. A monoclonal murine mAb with an IgG2b backbone (mMABT) was selected for in vivo functionality studies using both single-transgenic murine mutant human APP and double-transgenic murine mutant human APP/PS1 models of Alzheimer's Disease. […] These ranged from monomeric and oligomeric Aβ1-42 fractions isolated by size-exclusion chromatography (SEC), mature Aβ1-42 fibers, to a more complex mixture of highly neurotoxic Aβ1-42 oligomer assemblies, ranging in size from dimers and trimers to higher molecular-weight multimers (see FIG. 8)."}, "[3]": {"system": "Aβ plaques in the brains of transgenic mice expressing hAPP", "test": "Immunostaining of Aβ plaques in brain sections of hAPP transgenic mice", "type": "binding", "conditions": "hAPP transgenic mouse brain sections", "excerpt": "as §1"}, "[4]": {"system": "amyloid plaques in human AD brain sections", "test": "Immunohistochemistry of amyloid plaques in human AD brain sections", "type": "binding", "excerpt": "Paraffin mounted temporal lobe brain sections (20 μm) from an AD patient and from an age-matched non-AD control (Tissue Solutions, Clydebank, UK) were used for immunohistochemistry staining. […] A goat-anti-human biotinylated IgG was used as a secondary antibody. Staining was done with diaminobenzidin (Dako, Glostrup, Denmark) and mounting using Eukitt mounting medium. Images were acquired on a LSM 700 inverted microscope from Zeiss."}, "Aβ1-42 [5]": {"target": "Aβ1-42 (Homo sapiens, UniProt P05067)", "sequence (P05067 672-713 limits assumed)": "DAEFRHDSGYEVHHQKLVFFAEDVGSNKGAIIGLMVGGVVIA", "test": "Aβ1-42 self-assembly assay not relying on ThT fluorescence", "type": "biochemical", "conditions": "labeled Aβ1-42 onto immobilized un-labeled Aβ1-42"}, "[6]": {"target": "Aβ1-42 binding to recombinant human ApoE4 (Homo sapiens, UniProt P05067)", "sequence (P05067 672-713 limits assumed)": "as above", "test": "ELISA of Aβ1-42 binding to recombinant human ApoE4", "type": "biochemical", "conditions": "saturating concentrations of ApoE4 and Aβ1-42", "excerpt": "FIG. 9 provides a graph corresponding to the experiments described in Example 6.2. […] Percent inhibition of signal without an IgG monoclonal antibody is shown. […] The interaction site of ApoE4 with Aβ1-42 requires amino acids 18 to 28 (Strittmatter et al., 1993)."}}, "note": "Entries after “also recorded” stand apart in the source; their conditions may differ.", "data": [{"substance": "MABT-IgG1: same antigen binding sequences as MABT on human IgG1 wild-type backbone with full FcγR-binding capacity", "values": [{"measurement": "reversal of Aβ1-42 oligomer-mediated toxicity", "setting": "[1]", "value": "full reversal of Aβ1-42 oligomer-mediated toxicity; also recorded: trended towards a smaller protective effect when compared to MABT"}]}, {"substance": "MABT: humanized anti-Aβ monoclonal antibody of IgG4 isotype, affinity matured and humanized form of mouse mMABT", "values": [{"measurement": "binding to different Aβ peptides", "setting": "Aβ1-42 [2]", "value": "bound with high affinity"}, {"measurement": "binding to Aβ plaques", "setting": "[3]", "value": "immunodecorated"}, {"measurement": "binding to amyloid plaques", "setting": "[4]", "value": "immunodecorated"}, {"measurement": "Aβ1-42 self-assembly", "setting": "Aβ1-42 [5]", "value": "prevented the self-assembly of Aβ1-42 in a dose-dependent manner"}, {"measurement": "inhibition of the Aβ1-42 and ApoE4 interaction", "setting": "[6]", "value": "over 80%"}, {"measurement": "antibody-mediated increase in MTT signal under p38MAPK inhibition", "setting": "[1]; 10 μM Aβ1-42 oligomers, 100 μg/ml antibody, 1 μM SB239063, 24 h", "value": "reduced to that of MABT-IgG1-D265A"}, {"measurement": "rescue from Aβ1-42 oligomer toxicity (MTT)", "setting": "[1]; Aβ1-42 oligomer up to 5 μM, 24 h, MABT to oligomer molar ratio 1:7.5", "value": "complete rescue from toxicity"}, {"measurement": "reversal of Aβ1-42 oligomer-mediated toxicity", "setting": "[1]", "value": "full reversal of Aβ1-42 oligomer-mediated toxicity"}]}]}
